Here are results for 2 sequences from patent publication US20250255961A1, “METHODS TO STIMULATE IMMUNE RESPONSES TO MUTANT RAS USING NUCLEATED CELLS” (STEMCELL TECHNOLOGIES CANADA INC., priority 2020, published 2025).

Assay [1] has as its system K-Ras G12V responder T cells. Nature of the assay: IFN-γ ELISPOT: peptide-loaded HLA-A*11+ human PBMCs co-cultured with K-Ras G12V responder T cells. It counts as cell-based. The following applies: for IFN-γ secretion by K-Ras-G12V responder T cells upon co-culture: Example 4, FIG. 4, HLA-A*11+ human PBMCs (donor 296) SQZ-loaded with 100 μM SLP; for IFN-γ expressing K-Ras-G12V responder T cells upon co-culture: HLA-A*11+ human PBMCs SQZ-loaded with 100 μM SLP. Here is the method:
(§1) Human PBMCs from HLA-A*11^+ donor (donor 296) were prepared at a density of 10×10^6/mL, SQZ processed at room temperature through a constriction of 4.5 μm width, 10 μm length and 70 μm depth at 60 psi with 100 μM of the respective K-Ras synthetic long peptide (G12V^1-16, G12V^2-19) or with vehicle control (DMSO) in RPMI medium. Following SQZ-processing, the SQZ-loaded PMBCs were centrifuged, and the supernatant was discarded. The cells were subsequently washed once in R10 medium (RPMI+10% FCS+1% Pen/Strep), then washed twice in CTL medium (supplemented with 1% glutamine), before resuspension in fresh CTL medium (supplemented with 1% glutamine).
2×10^5 SQZ-loaded PBMCs were then placed in co-culture with 5×10^4 K-Ras G12V responder T cells (generated in transgenic mice) in an IFN-γ ELISPOT plate. As a positive control, 10 μM K-Ras G12V^7-16 peptide containing the minimal epitope was added directly to untreated PBMCs and responder cells in the ELISPOT plate (peptide spike). The plate was incubated overnight at 37° C. and then developed/quantified according to manufacturer's instructions.
as §1, with “donor” for “donor (donor 296)”, “constriction with” for “constriction of”, “peptide (K-Ras G12V^3-17, K-Ras G12V^3-42)” for “peptide (G12V^1-16, G12V^2-19)”, “medium. An irrelevant synthetic long peptide (HPV-E7.6) was used as a negative control.” for “medium.”
as §1, with “donor” for “donor (donor 296)”, “10× 10^6/mL,” for “10×10^6/mL,”, “(wild type K-Ras^1-16, G12V^1-16, wild type K-Ras^2-22, or G12V^2-22)” for “(G12V^1-16, G12V^2-19)”
as §1, with “donor” for “donor (donor 296)”, “of a single” for “of the respective”, “peptide (G12V^1-16” for “peptide (G12V^1-16, G12V^2-19)”, “or G12V^2-19), or a combination of two K-Ras synthetic long peptides which are each at 100 μM (G12V^1-16 plus G12D^1-16 or G12V^2-19 plus G12D^1-16) or” for “or with”, “glutamine). […]” for “glutamine).”

Assay [2] deals with K-Ras G12V responder T cells. The description is as above. It counts as cell-based.

For the sequence “MTEYKLVVVGAVGVGK [G12V^1-16, K-Ras G12V synthetic long peptide, residues 1-16]”, the entries for the “IFN-γ secretion by K-Ras-G12V responder T cells upon co-culture” value in assay [1] and in assay [1] (listed as K-Ras-G12V^1-16) were “significantly increased” and “increased amount”, respectively. Moreover, the “IFN-γ expressing K-Ras-G12V responder T cells upon co-culture” value in assay [1] (Example 6, FIG. 6, compared to vehicle control) was “significant increases”; in assay [1] (Example 6, FIG. 6, compared to vehicle control, listed as K-Ras-G12V^1-16), “increased amount”; in assay [2] (Example 8, FIG. 8, HLA-A*11+ human PBMCs SQZ-loaded with one SLP or a combination of two SLPs, each at 100 μM) it was “significant increases”.
As for “EYKLVVVGAVGVGKSALTIQLIQNHFVDEYDPTIEDSYRK [G12V^3-42, K-Ras G12V synthetic long peptide, residues 3-42]”, the “IFN-γ expressing K-Ras-G12V responder T cells upon co-culture” value in assay [1] (Example 5, FIG. 5) is “significant increases”; in assay [2] (Example 5, FIG. 5, HLA-A*11+ human PBMCs SQZ-loaded with 100 μM SLP, listed as K-Ras-G12V^3-42) it was “increased amount”.
